According to patent US20090023733A1, “Piperidine Derivatives, Their Process for Preparation, Their Use as Therapeutic Agents and Pharmaceutical Compositions Containing Them” (priority 2006, published 2009):

Assays:
[1] = molecular target: T1, human recombinant CCR3 receptors (Homo sapiens, UniProt P51677); assay: Compound affinity at human recombinant CCR3 receptors by competition of [3H]-4-(2,4-dichloro-3-methylphenoxy)-1'-[4-(methylsulfonyl)benzoyl]-1,4'-bipiperidine, CHO-K1 cell membranes; assay type: binding; details: mean pKi (Cheng-Prussof correction of pIC50), minimum of 2 experiments, recombinant human CCR3, 2 nM radioligand, 2 h at 37° C.
T1 construct: expressed in transfected cells
T1 sequence (P51677 1-355): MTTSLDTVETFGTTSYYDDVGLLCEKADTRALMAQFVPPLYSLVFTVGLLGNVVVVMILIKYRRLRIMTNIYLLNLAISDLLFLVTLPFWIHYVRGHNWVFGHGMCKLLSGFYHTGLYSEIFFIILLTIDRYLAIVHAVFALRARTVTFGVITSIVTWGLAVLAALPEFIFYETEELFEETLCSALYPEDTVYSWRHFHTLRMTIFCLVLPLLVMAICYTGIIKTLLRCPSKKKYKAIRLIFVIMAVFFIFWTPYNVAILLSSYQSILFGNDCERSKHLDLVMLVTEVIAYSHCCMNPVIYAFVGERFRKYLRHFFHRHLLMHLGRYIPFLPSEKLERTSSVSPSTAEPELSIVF
Procedure: Determination of Compound Affinity at Human Recombinant CCR3 Receptors Assessed By Competition Of [^3H]-4-(2,4-dichloro-3-methylphenoxy)-1′-[4-(methylsulfonyl)benzoyl]-1,4′-bipiperidine for CHO—K1 Cell Membranes In Vitro
Membranes, prepared from CHO—K1 cells stably expressing recombinant human CCR3, suspended in assay buffer (50 mM Tris-Base, pH 7.4; containing sodium chloride (100 mM) and magnesium chloride (2 mM)) were incubated in the presence of 2 nM [^3H]-4-(2,4-dichloro-3-methylphenoxy)-1′-[4-(methylsulfonyl)benzoyl]-1,4′-bipiperidine, along with vehicle (1% (v/v) DMSO), 4-(4-chloro-3-methylphenoxy)-1′-[2-(methylsulfonyl)benzoyl]-1,4′-bipiperidine (to define non-specific binding) or test compound for 2 h at 37° C. in round bottomed 96-well plates. The plates were then filtered onto GF/B filter plates, pre-soaked for 1 hour in plate-coating solution (0.3% (w/v) polyethylenimine, 0.2% (w/v) BSA in de-ionised water), using a 96-well plate Tomtec cell harvester. Four washes (250 μL) with wash buffer (50 mM Tris-Base, pH 7.4 containing sodium chloride (500 mM) and magnesium chloride (2 mM)) were performed at 4° C. to remove unbound radioactivity. Plates were dried and MicroScint-O (50 μL) was added to each well. The plates were sealed (TopSeal A) and filter-bound radioactivity was measured with a scintillation counter (TopCount, Packard BioScience) using a 1 minute counting protocol.
Specific binding was determined from values of the control wells minus the values for the NSB wells for each assay plate. pIC50 values were calculated using a four parameter logistic fit (where pIC50 is defined as the negative logarithm of the concentration of compound required for 50% reduction in specific [^3H]-4-(2,4-dichloro-3-methylphenoxy)-1′-[4-(methylsulfonyl)benzoyl]-1,4′-bipiperidine binding). Data were presented as mean pKi values (calculated by applying a Cheng-Prussof correction to pIC50 values) from a minimum of 2 separate experiments.

[2] = Determination of intrinsic clearance with human liver microsomes; assay type: in vitro ADME; details: human liver microsomes 1 mg protein/ml, NADPH, pH 7.4; CLint=ln 2/T1/2
Procedure: Determination of Intrinsic Clearance with Human Liver Microsomes
Frozen human liver microsomes (BD Gentest, Oxford) were defrosted and were then diluted with 0.1 M pH 7.4 phosphate buffer at 4° C. to 1 mg protein/ml. 0.45 mL aliquots of the microsome suspension were dispensed into flat-bottomed vials (1 per compound) and were allowed to come to room temperature (5 min). During the warming time, 5 μL of solution of each test compound (typically 100 μM in DMSO) was dispensed into separate vials resulting in a final DMSO concentration of 1%. 50 μL of a 10 mM solution of NADPH in phosphate buffer ([…] pH 7.4, 37° C.) was added to each vial to initiate metabolism.
50 μL Aliquots of the mixtures were removed at measured intervals and were immediately quenched by addition to 100 μL of methanol cooled in ice. The quenched samples were kept cold (at −20° C. or less) for at least 1 h and were then centrifuged to remove protein.
The supernatant solution was analysed using quantitative LCMS for the presence of test compound. From the concentrations of test compound at different time points a T1/2 may be calculated which may be converted to an intrinsic clearance using the equation: CLint=ln 2/T1/2.

O=C(CSc1ccccc1C(=O)O)NC1CCN(Cc2ccc(Cl)c(Cl)c2)CC1 [Example 1, 2-[(2-{[1-(3,4-Dichlorobenzyl)piperidin-4-yl]amino}-2-oxoethyl)thio]benzoic acid]
Ki [1]: 251 nM
CLint scaled at 1 µM [2]: < 3 mL/min/kg

O=C(CSc1cccc(C(=O)O)c1)NC1CCN(Cc2ccc(Cl)c(Cl)c2)CC1 [Example 4, 3-[(2-{[1-(3,4-Dichlorobenzyl)piperidin-4-yl]amino}-2-oxoethyl)thio]benzoic acid]
Ki [1]: 12.6 nM
CLint scaled at 1 µM [2]: < 3 mL/min/kg

O=C(CSc1ccc(C(=O)O)cc1)NC1CCN(Cc2ccc(Cl)c(Cl)c2)CC1 [Example 7, 4-[(2-{[1-(3,4-Dichlorobenzyl)piperidin-4-yl]amino}-2-oxoethyl)thio]benzoic acid]
Ki [1]: 6.31 nM
CLint scaled at 1 µM [2]: < 3 mL/min/kg

O=C(CSc1ccc(C(=O)O)cc1CN1CCOCC1)NC1CCN(Cc2ccc(Cl)c(Cl)c2)CC1 [Example 18, 4-[(2-{[1-(3,4-Dichlorobenzyl)piperidin-4-yl]amino}-2-oxoethyl)thio]-3-(morpholin-4-ylmethyl)benzoic acid]
Ki [1]: 12.6 nM
CLint scaled at 1 µM [2]: 30 mL/min/kg
